Experimental data as given in ChEMBL document CHEMBL3991601, “The target landscape of clinical kinase drugs” (Science, 2017).
Activity calls are given as the source filed them.

Tests used:
[1] = target: T1, Eukaryotic translation initiation factor 5B (Homo sapiens, UniProt O60841)
T1 sequence (O60841 whole entry): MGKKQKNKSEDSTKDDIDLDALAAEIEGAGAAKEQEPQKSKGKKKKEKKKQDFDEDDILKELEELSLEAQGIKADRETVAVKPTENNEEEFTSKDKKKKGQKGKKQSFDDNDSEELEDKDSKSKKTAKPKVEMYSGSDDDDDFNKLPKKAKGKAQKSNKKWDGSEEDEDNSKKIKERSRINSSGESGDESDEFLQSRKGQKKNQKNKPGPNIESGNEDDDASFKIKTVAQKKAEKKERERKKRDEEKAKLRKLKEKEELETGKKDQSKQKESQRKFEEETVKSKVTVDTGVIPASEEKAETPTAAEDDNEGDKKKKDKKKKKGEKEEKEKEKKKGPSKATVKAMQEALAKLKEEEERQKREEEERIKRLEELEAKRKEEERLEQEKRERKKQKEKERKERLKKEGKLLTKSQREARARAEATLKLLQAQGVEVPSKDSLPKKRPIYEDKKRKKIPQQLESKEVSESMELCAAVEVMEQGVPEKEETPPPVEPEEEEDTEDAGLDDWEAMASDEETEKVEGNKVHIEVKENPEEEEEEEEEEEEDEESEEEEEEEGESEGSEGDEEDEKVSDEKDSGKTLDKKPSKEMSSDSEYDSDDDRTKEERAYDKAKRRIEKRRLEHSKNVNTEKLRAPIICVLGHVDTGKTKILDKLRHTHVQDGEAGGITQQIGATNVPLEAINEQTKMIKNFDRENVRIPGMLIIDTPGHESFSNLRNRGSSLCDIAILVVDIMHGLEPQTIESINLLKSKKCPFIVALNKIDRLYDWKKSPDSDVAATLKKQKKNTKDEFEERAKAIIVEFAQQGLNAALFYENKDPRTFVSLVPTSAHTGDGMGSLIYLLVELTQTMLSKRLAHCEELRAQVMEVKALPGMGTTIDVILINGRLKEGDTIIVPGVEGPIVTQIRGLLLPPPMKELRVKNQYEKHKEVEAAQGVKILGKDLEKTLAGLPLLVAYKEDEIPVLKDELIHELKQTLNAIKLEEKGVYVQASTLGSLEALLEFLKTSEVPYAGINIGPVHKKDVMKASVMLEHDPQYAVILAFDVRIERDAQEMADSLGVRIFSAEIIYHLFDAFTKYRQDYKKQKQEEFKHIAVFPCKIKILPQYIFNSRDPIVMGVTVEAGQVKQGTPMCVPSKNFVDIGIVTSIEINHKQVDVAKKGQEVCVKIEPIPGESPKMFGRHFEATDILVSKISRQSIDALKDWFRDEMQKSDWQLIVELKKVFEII

[2] = target: G protein-coupled receptor kinase 6 (Homo sapiens, UniProt P43250)
[3] = target: Dual specificity mitogen-activated protein kinase kinase 1 (Homo sapiens, UniProt Q02750)
[4] = target: Protein kinase C theta type (Homo sapiens, UniProt Q04759)
[5] = target: T2, Isoleucine--tRNA ligase, mitochondrial (Homo sapiens, UniProt Q9NSE4)
T2 sequence (Q9NSE4 whole entry): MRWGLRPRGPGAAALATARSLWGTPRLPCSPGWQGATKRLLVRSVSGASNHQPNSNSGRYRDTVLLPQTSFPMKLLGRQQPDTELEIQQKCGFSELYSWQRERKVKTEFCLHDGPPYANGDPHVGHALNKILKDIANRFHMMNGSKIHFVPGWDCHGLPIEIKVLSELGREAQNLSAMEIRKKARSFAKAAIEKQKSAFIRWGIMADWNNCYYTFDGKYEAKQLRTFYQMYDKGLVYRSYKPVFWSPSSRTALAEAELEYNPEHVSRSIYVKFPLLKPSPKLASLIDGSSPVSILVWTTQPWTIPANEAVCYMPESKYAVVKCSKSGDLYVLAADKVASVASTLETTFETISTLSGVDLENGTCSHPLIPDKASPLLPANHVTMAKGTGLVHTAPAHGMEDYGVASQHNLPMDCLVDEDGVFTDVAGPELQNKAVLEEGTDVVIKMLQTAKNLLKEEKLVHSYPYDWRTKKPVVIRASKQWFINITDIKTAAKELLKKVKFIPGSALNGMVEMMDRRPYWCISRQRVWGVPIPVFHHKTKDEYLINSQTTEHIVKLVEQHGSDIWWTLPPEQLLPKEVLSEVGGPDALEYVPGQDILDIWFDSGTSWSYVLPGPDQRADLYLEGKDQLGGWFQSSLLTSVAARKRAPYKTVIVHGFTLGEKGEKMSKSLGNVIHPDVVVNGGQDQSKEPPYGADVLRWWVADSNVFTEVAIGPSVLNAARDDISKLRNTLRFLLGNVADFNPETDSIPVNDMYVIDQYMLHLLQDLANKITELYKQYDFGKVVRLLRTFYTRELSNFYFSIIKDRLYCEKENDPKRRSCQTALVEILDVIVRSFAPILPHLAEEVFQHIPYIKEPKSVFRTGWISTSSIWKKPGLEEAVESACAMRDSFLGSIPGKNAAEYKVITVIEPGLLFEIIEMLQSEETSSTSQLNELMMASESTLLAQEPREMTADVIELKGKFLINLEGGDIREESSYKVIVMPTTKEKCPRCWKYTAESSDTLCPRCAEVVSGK
Further: in the data inactive means no Kd found up to 30 µM.

G protein-coupled receptor kinase 6, sequence (P43250 whole entry): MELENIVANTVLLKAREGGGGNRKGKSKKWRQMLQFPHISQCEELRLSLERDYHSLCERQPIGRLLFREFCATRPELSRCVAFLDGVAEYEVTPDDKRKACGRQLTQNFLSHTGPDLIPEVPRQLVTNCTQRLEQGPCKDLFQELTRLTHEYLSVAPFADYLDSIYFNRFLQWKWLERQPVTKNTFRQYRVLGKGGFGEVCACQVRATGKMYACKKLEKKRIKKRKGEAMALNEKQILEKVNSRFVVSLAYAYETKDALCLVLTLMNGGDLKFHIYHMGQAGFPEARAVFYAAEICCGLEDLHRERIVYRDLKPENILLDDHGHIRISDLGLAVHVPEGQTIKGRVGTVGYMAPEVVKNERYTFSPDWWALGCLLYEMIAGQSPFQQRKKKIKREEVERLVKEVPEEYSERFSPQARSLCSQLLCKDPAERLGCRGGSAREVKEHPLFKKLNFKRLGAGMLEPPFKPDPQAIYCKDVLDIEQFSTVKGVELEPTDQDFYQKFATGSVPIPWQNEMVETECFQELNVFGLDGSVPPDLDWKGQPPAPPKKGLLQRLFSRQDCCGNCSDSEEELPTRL
Protein kinase C theta type, sequence (Q04759 whole entry): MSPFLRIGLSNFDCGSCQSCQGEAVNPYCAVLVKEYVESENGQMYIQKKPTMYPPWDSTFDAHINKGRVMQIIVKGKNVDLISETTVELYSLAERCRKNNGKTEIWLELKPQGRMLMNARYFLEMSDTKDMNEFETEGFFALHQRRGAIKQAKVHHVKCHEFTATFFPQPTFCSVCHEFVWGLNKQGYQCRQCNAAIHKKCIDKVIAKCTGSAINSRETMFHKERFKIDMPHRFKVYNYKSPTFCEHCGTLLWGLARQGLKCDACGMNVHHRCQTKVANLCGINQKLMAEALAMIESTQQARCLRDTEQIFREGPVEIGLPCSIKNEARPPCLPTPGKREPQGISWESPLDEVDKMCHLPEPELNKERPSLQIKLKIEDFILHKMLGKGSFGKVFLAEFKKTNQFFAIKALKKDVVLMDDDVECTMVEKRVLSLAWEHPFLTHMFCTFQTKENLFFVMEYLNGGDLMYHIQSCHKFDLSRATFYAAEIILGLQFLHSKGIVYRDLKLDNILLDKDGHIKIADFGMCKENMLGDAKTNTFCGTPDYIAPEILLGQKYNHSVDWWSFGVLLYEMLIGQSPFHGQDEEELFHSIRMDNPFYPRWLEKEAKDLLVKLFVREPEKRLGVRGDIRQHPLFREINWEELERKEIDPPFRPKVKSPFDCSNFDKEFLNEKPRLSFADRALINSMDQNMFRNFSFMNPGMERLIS
Dual specificity mitogen-activated protein kinase kinase 1, sequence (Q02750 whole entry): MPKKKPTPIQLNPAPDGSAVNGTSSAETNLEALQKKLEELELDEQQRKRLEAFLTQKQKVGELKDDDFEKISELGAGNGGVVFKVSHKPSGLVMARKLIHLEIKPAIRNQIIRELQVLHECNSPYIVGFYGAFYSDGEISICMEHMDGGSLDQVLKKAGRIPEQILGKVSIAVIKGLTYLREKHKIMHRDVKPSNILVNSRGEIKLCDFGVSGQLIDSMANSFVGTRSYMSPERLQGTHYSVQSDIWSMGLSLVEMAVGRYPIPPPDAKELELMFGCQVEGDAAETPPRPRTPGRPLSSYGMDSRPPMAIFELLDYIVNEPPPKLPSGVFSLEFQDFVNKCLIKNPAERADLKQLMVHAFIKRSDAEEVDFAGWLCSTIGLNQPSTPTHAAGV

Row | Structure (SMILES) | Kd [1] | Kd [2] | Kd [3] | Kd [4] | Kd [5]
1 | Cn1c(=O)c(F)c(Nc2ccc(I)cc2F)c2c(=O)n(C[C@@H](O)CO)cnc21 [TAK-733] | > 30 µM (inactive) | > 30 µM (inactive) | 0.021 µM (active) | > 30 µM (inactive) | –
2 | COc1cc2ncnc(Nc3ccc(F)c(Cl)c3)c2cc1NC(=O)/C=C/CN1CCCCC1 [DACOMITINIB ANHYDROUS] | > 30 µM (inactive) | > 30 µM (inactive) | > 30 µM (inactive) | > 30 µM (inactive) | –
3 | C#Cc1cccc(Nc2ncnc3cc4c(cc23)OCCOCCOCCO4)c1 [ICOTINIB] | > 30 µM (inactive) | > 30 µM (inactive) | > 30 µM (inactive) | > 30 µM (inactive) | > 30 µM (inactive)
4 | S=C(NCc1ccc2c(c1)OCO2)N1CCN(c2ncnc3c2oc2ccccc23)CC1 [AMUVATINIB] | > 30 µM (inactive) | > 30 µM (inactive) | > 30 µM (inactive) | > 30 µM (inactive) | > 30 µM (inactive)
5 | CN1CCN(c2nc(C3=C(c4c[nH]c5ccccc45)C(=O)NC3=O)c3ccccc3n2)CC1 [SOTRASTAURIN] | > 30 µM (inactive) | > 30 µM (inactive) | > 30 µM (inactive) | 0.013 µM (active) | > 30 µM (inactive)
6 | CC1(COc2ccc3c(c2)ncn3-c2ccc3cccc(N4CCC(N)CC4)c3n2)COC1 [CRENOLANIB] | > 30 µM (inactive) | > 30 µM (inactive) | > 30 µM (inactive) | – | > 30 µM (inactive)
7 | CNC(=O)c1cc(COc2nnc(Nc3ccc(Cl)cc3)c3ccoc23)ccn1 [TELATINIB] | > 30 µM (inactive) | > 30 µM (inactive) | > 30 µM (inactive) | > 30 µM (inactive) | –
8 | COc1cc(F)c(F)c(Nc2ccc(I)cc2F)c1NS(=O)(=O)C1(C[C@H](O)CO)CC1 [REFAMETINIB] | > 30 µM (inactive) | > 30 µM (inactive) | – | > 30 µM (inactive) | > 30 µM (inactive)
9 | COc1cc2c(Oc3ccc4[nH]c(C)cc4c3F)ncnc2cc1OCCCN1CCCC1 [CEDIRANIB] | > 30 µM (inactive) | > 30 µM (inactive) | – | – | > 30 µM (inactive)
10 | COc1cccc2cc(-c3nc([C@H]4CC[C@H](C(=O)O)CC4)n4ncnc(N)c34)[nH]c12 [OSI-027] | > 30 µM (inactive) | > 30 µM (inactive) | > 30 µM (inactive) | > 30 µM (inactive) | > 30 µM (inactive)
11 | Cc1ccc(C(=O)Nc2ccc(Oc3cc4cnn(C)c4cc3-c3cn[nH]c3)c(F)c2)c(=O)n1-c1ccc(F)cc1 [MERESTINIB] | > 30 µM (inactive) | > 30 µM (inactive) | > 30 µM (inactive) | > 30 µM (inactive) | > 30 µM (inactive)
12 | CNC(=O)c1cccc(-c2ccc3c(N4CCOC[C@@H]4C)nc(N4CCOC[C@@H]4C)nc3n2)c1 [VISTUSERTIB] | > 30 µM (inactive) | > 30 µM (inactive) | > 30 µM (inactive) | > 30 µM (inactive) | > 30 µM (inactive)
13 | C=CC(=O)Nc1cc(Nc2nccc(-c3cn(C)c4ccccc34)n2)c(OC)cc1N(C)CCN(C)C [OSIMERTINIB] | > 30 µM (inactive) | > 30 µM (inactive) | > 30 µM (inactive) | > 30 µM (inactive) | > 30 µM (inactive)
14 | COc1ccc2c(OCc3nnc4ccc(-c5ccccc5)nn34)ccnc2c1 [AMG-208] | > 30 µM (inactive) | > 30 µM (inactive) | > 30 µM (inactive) | > 30 µM (inactive) | > 30 µM (inactive)
15 | CC(C)CC(=O)Nc1[nH]nc2c1CN(C(=O)C1CCN(C)CC1)C2(C)C [PHA-793887] | > 30 µM (inactive) | > 30 µM (inactive) | > 30 µM (inactive) | 2.34 µM (active) | > 30 µM (inactive)
16 | Cc1c(Cn2c(C)nc3c(C(=O)O)cc(N4CCOCC4)cc32)cccc1C(F)(F)F [GSK-2636771] | – | > 30 µM (inactive) | > 30 µM (inactive) | > 30 µM (inactive) | > 30 µM (inactive)
17 | Cn1cc(-c2[nH]c3cc(NC(=O)[C@H](N)C4CCCCC4)cc4c3c2C=NNC4=O)cn1 | – | > 30 µM (inactive) | > 30 µM (inactive) | > 30 µM (inactive) | > 30 µM (inactive)
18 | C[C@@]1(C(=O)Nc2ccc(F)nc2)CCCN1c1nc(Nc2cc(C3CC3)n[nH]2)c2cccn2n1 [BMS-754807] | > 30 µM (inactive) | > 30 µM (inactive) | – | – | > 30 µM (inactive)
19 | O=C(Nc1ccc(OC(F)(F)F)cc1)c1sccc1NCc1ccnc2ccccc12 [OSI-930] | > 30 µM (inactive) | > 30 µM (inactive) | > 30 µM (inactive) | > 30 µM (inactive) | > 30 µM (inactive)
20 | COc1ccc(-c2ccc3ncc4c(c3c2)n(-c2ccc(N3CCNCC3)c(C(F)(F)F)c2)c(=O)n4C)cn1 [BGT-226 FREE BASE] | > 30 µM (inactive) | > 30 µM (inactive) | > 30 µM (inactive) | > 30 µM (inactive) | > 30 µM (inactive)
21 | Cc1cc(Nc2nc(N[C@@H](C)c3ncc(F)cn3)ncc2Cl)n[nH]1 [AZD-1480] | > 30 µM (inactive) | > 30 µM (inactive) | > 30 µM (inactive) | > 30 µM (inactive) | > 30 µM (inactive)
22 | CCc1cc2c(cc1N1CCC(N3CCOCC3)CC1)C(C)(C)c1[nH]c3cc(C#N)ccc3c1C2=O [ALECTINIB] | > 30 µM (inactive) | > 30 µM (inactive) | > 30 µM (inactive) | > 30 µM (inactive) | –
23 | FC(F)(F)c1ccc(CNc2ccc(Cc3c[nH]c4ncc(Cl)cc34)cn2)cn1 [PEXIDARTINIB] | – | > 30 µM (inactive) | > 30 µM (inactive) | 0.006 µM | –
24 | O=S(=O)(c1cccc2c(O)nccc12)N1CCCNCC1 [HYDROXYFASUDIL] | > 30 µM (inactive) | > 30 µM (inactive) | > 30 µM (inactive) | > 30 µM (inactive) | –
